Results published in publication PMC11056980 (Journal of medicinal chemistry, 2024).
“Also recorded” adds a separate entry of the source. Residues, ends and D or L forms follow the SMILES beside them. *: point of attachment. Cbz = O=C(OCc1ccccc1)*

Tests used:
[1] = biological target: M^Pro-eGFP fusion protein (Severe acute respiratory syndrome coronavirus 2, UniProt P0DTD1, Q3569G); format: cell-based, SARS-CoV-2
[2] = test system: SARS-CoV-2 delta variant hCoV-19/USA/MD-HP05647/2021; format: cell-based
M^Pro = M^Pro (Severe acute respiratory syndrome coronavirus 2, UniProt P0DTD1); format: cell-based, SARS-CoV-2
[3] = test system: recombinant SARS-CoV-2 Δ3678 mGFP containing an NSP5 E166A mutation; format: cell-based
[4] = test system: recombinant SARS-CoV-2 Δ3678 mGFP containing an NSP5 E166A mutation; details: cited from earlier work

Q: With CC(C)C[C@@H](C=O)NC(=O)[C@H](CC(C)C)NC(=O)[C@H](CC(C)C)NC(=O)OCc1ccccc1 [MG132, reference compound] (Cbz-Leu-Leu-Leu-aldehyde) as the compound, how does the “Effect of proteasome inhibitor pretreatment on MPD2-induced M^Pro degradation” value [1] read?
A: The value was “effectively rescued”.

Q: Which results are given for C[C@@H](OC(C)(C)C)[C@H](NC(=O)OCc1cccc(OCCCCCCOc2cccc3c2C(=O)N(C2CCC(=O)NC2=O)C3=O)c1)C(=O)N[C@@H](CC1CCCCC1)C(=O)N[C@H](C=O)C[C@@H]1CCNC1=O (some centres unmarked) [MPD2]?
A: antiviral synergy with nirmatrelvir [2]: synergistic effects; M^Pro degradation in CRBN knockout vs wildtype CRBN cells [1]: significant rescue of intracellular M^Pro; M^Pro degradation, time course [1]: significant degradation; also recorded: nearly maximal degradation; M^Pro degradation during SARS-CoV-2 infection (M^Pro): most potent degrader; greater potency against NSP5 E166A mutant virus compared to wild-type Δ3678 mGFP [3]: 5 fold

Q: With C[C@@H](OC(C)(C)C)[C@H](NC(=O)OCc1ccccc1)C(=O)N[C@@H](CC1CCCCC1)C(=O)N[C@H](C=O)C[C@@H]1CCNC1=O [MPI8, reference compound] as the compound, how does the “Effect of pretreatment on MPD2-induced M^Pro degradation (competition)” value [1] read?
A: The value was “completely blocked”.

Q: With CC(C)(C)[C@H](NC(=O)C(F)(F)F)C(=O)N1C[C@H]2[C@@H]([C@H]1C(=O)N[C@H](C#N)C[C@@H]1CCNC1=O)C2(C)C [nirmatrelvir] as the compound, how does the “resistance conferred by NSP5 E166A mutation” value [4] read?
A: The value was 10 fold.
